From patent US20250230173A1, “SALT FORMS OF AN AXL INHIBITOR” (Arcus Biosciences, Inc., priority 2023, published 2025)
“Also recorded” adds a separate entry of the source.

How the values were obtained:
Assay type in all cases: physicochemical
[1] = Stability of 2-Napsylate Form I under variable humidity (XRPD); conditions: RH 10% to 90% at 25° C., every 10% RH, 4 hr equilibration at each step
Experimental: 2-Napsylate Form I was used to test form changes as a function of RH from 10% to 90% at 25° C. The XRPD data was collected every 10% RH (FIG. 20) with an equilibration time of 4 hr at each step.

[2] = Storage at 40° C. and 75% RH for one week (XRPD)
Experimental: The stability of 2-Napsylate Form I was compared with the stability of 2-[…] Form VI when stored at 40° C. and 75% RH for a period of one week.

[3] = Stability study of selected solid forms, HPLC purity after 7 days of storage
[4] = Form conversion of 2-Napsylate crystalline forms on vacuum drying or in slurry (XRPD); conditions: slurry at 50° C., ACN/DMSO (11:1), after 20 days
[5] = Hygroscopicity by DVS, XRPD before and after; conditions: two DVS cycles, 0-90% RH
Experimental: Hygroscopicity of 2-Napsylate Forms I and VI were assessed using DVS. Samples of 2-Napyslate Form I and Form VI (7-20 mg) were placed separately into a tared sample chamber and automatically weighed.

[6] = Long term and accelerated stability of 2-Napsylate Form I; conditions: for Changes on storage: as of 3 months
Experimental: Samples of 2-Napsylate Form I were further tested for long term and accelerated stability. Samples of the compound are stored at conditions of either 2-8° C. (long term) or 25° C. and 60% RH (accelerated). Stability samples are packaged in double low-density polyethylene (LDPE) bags in a high-density polyethylene (HDPE) outer container.
Samples are tested for appearance, assay, chemical purity, water content, microbial limits, and crystallinity.

[7] = Stability study of selected solid forms, XRPD after 7 days of storage
Source text: XRPD diffractograms were collected with a Bruker, D2 Phaser or Panalytical Empyrean X-ray diffractometer. Diffractograms can be read by one of skill in the art, for example, to determine if a chemical sample is the substantially the same, different, or represents a mixture of forms. When a diffractogram is “substantially in accordance” as another diffractogram, a person of skill in the art would regard the samples resulting in the two diffractograms as the same form or same mixture of forms, taking into account minor variations for instrumentation, conditions, and the like.
A stability study comparing amorphous freebase Compound I, Freebase Form II, 2-Napsylate Form I, Fumarate Form I, Succinate Form I, and Camsylate Form I was conducted. HPLC measurements were taken after 7 days of storage at the indicated conditions.

For `Cc1cccnc1-c1ccc(-c2n[nH]c3ncc(-c4ccc5c(c4)CC[C@@H](N4C6COCC4C6)CC5)cc23)nc1` [2-Napsylate Form I], the “Form change as a function of RH (XRPD)” value [1] was “No form change was observed”, the “Stability on storage (XRPD)” value [2] was “stable” and the “HPLC Purity (A %)” value ([3]; 7 days, 25° C.) was 99.82 A %. The “HPLC Purity (A %)” value ([3]; 7 days, 40° C. / 75% RH) was 99.35 A %, the “HPLC Purity (A %)” value ([3]; 7 days, 60° C.) was 99.21 A % and the “Chemical and physical stability compared to the other forms tested” value ([3]; Example 6 stability study) was “better chemical and physical stability; also recorded: improved chemical and physical stability”. The “HPLC Purity (A %)” value ([3]; T0) was 99.82 A %, the “Crystal form after prolonged slurry” value [4] was “Form IV + extra XRPD” and the “Form change after DVS testing (XRPD)” value [5] was “no form change”. For the same compound, the “Assay ‘anhydrous and solvent-free basis’ (% w/w)” value ([6]; 2-8° C., 1 month) was 96.9 % w/w, the Crystallinity ([6]; 2-8° C., 1 month) was “Crystalline” and the “Total impurity (% a/a)” value ([6]; 2-8° C., 1 month) was 1.7 % a/a. For the same compound, the “Water content (% w/w)” value ([6]; 2-8° C., 1 month) was 1.2 % w/w, the “Assay ‘anhydrous and solvent-free basis’ (% w/w)” value ([6]; 2-8° C., 3 months) was 96.1 % w/w and the Crystallinity ([6]; 2-8° C., 3 months) was “Crystalline”. For the same compound, the “Total impurity (% a/a)” value ([6]; 2-8° C., 3 months) was 1.7 % a/a, the “Water content (% w/w)” value ([6]; 2-8° C., 3 months) was 1.8 % w/w and the “Assay ‘anhydrous and solvent-free basis’ (% w/w)” value ([6]; 2-8° C., 6 months) was 97.7 % w/w. For the same compound, the Crystallinity ([6]; 2-8° C., 6 months) was “Crystalline”, the “Total impurity (% a/a)” value ([6]; 2-8° C., 6 months) was 1.4 % a/a and the “Water content (% w/w)” value ([6]; 2-8° C., 6 months) was 2.1 % w/w. The “Assay ‘anhydrous and solvent-free basis’ (% w/w)” value ([6]; 2-8° C., Initial) was 95.8 % w/w, the Crystallinity ([6]; 2-8° C., Initial) was “Crystalline” and the “Total impurity (% a/a)” value ([6]; 2-8° C., Initial) was 1.5 % a/a. For the same compound, the “Water content (% w/w)” value ([6]; 2-8° C., Initial) was 0.87 % w/w, the “Assay ‘anhydrous and solvent-free basis’ (% w/w)” value ([6]; 25° C. and 60% RH, 1 month) was 96.8 % w/w and the “Total impurity (% a/a)” value ([6]; 25° C. and 60% RH, 1 month) was 1.8 % a/a. For the same compound, the “Water content (% w/w)” value ([6]; 25° C. and 60% RH, 1 month) was 1.2 % w/w, the “Assay ‘anhydrous and solvent-free basis’ (% w/w)” value ([6]; 25° C. and 60% RH, 3 months) was 95.2 % w/w and the “Total impurity (% a/a)” value ([6]; 25° C. and 60% RH, 3 months) was 1.8 % a/a. For the same compound, the “Water content (% w/w)” value ([6]; 25° C. and 60% RH, 3 months) was 1.6 % w/w, the “Assay ‘anhydrous and solvent-free basis’ (% w/w)” value ([6]; 25° C. and 60% RH, 6 months) was 96.2 % w/w and the “Total impurity (% a/a)” value ([6]; 25° C. and 60% RH, 6 months) was 1.6 % a/a. For the same compound, the “Water content (% w/w)” value ([6]; 25° C. and 60% RH, 6 months) was 2.1 % w/w, the “Assay ‘anhydrous and solvent-free basis’ (% w/w)” value ([6]; 25° C. and 60% RH, Initial) was 95.8 % w/w and the “Total impurity (% a/a)” value ([6]; 25° C. and 60% RH, Initial) was 1.5 % a/a. The “Water content (% w/w)” value ([6]; 25° C. and 60% RH, Initial) was 0.87 % w/w, the Changes on storage ([6]; accelerated (25° C. and 60% RH)) was “no significant changes” and the Changes on storage ([6]; long term (2-8° C.)) was “no significant changes”. The “XRPD (solid form)” value ([7]; 7 days, 25° C.) was “Form I”, the “XRPD (solid form)” value ([7]; 7 days, 40° C. / 75% RH) was “Form I” and the “XRPD (solid form)” value ([7]; 7 days, 60° C.) was “Form I”. For the same compound, the “XRPD (solid form)” value ([7]; T0) was “Form I”.
